Drawing on PubChem BioAssay (NCI), this text covers TGI and GI50 for 25 compounds.

What all share (test): NCI-60 cell line screen, 48 h
In assay [1] the test system is DMS 273 small cell lung.
In assay [2] the test system is LXFL 529 NSCLC.
Assay [3] concerns RXF-631 renal.
Assay [4] relates to DMS 114 small cell lung.
In assay [5] the test system is HOP-18 NSCLC.
Assay [6] deals with XF 498 CNS.
In assay [7] the test system is MDA-MB-231 breast.
The test system of assay [8] is MDA-N.
In assay [9] the test system is PC-3 prostate.

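These data come from cells grown in 96-well plates and exposed to compound for 48 hours at five concentrations. At the GI50, growth is halved. TGI is the concentration that stops growth completely.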 Some results are limits rather than exact numbers.

For `O=C(CO[N+](=O)[O-])OCC(=O)c1ccccc1`, the TGI in assay [1], in assay [2] and in [3] was over 100 µM each time.

Regarding `CC1=C2[C@@H](c3ccccc3)C3C=CC2(C=C3C(F)(F)F)N(C(=O)NC2CCCCC2)C1=O` (some centres not stated), the TGI in assay [4], in [1], in assay [5], in assay [2], in assay [3] and in [6] was over 100 µM throughout.

On to `NC1=NN(c2ccccc2)C(=O)C1/C(=N\NC(=O)c1cc2ccccc2cc1O)C(=O)Nc1ccc(Cl)cc1` (configuration not stated), for which the TGI in assay [4] was 56.7 µM; in [1], over 100 µM; in assay [5], over 100 µM; in assay [2] it was over 100 µM; in [3] it was over 100 µM; in [6], over 100 µM.

For the compound `NC(=O)NC(=O)C1CCC(=O)N1S(=O)(=O)c1ccc(Cl)cc1` (configuration not stated), the TGI in assay [4], in assay [5], in [2], in assay [3] and in assay [6] was over 100 µM in each case.

For `COc1cccc(OC)c1/C=N\N1C(=O)c2ccccc2C1=O`, the TGI in [4] is 91 µM; in [1] it was 84.6 µM; in [5], over 100 µM; in assay [2], over 100 µM; in assay [3] it was over 100 µM; in assay [6], 86.4 µM.

Take `O=[N+]([O-])C1(CO)COC(CCc2ccccc2)OC1` (configuration not stated): the TGI in assay [5], in [2] and in [6] was over 100 µM in each case.

Take `Cc1c(C(=O)C/C(=N/NC(=O)CC#N)C(N)=O)[n+](=O)c2ccccc2n1[O-]`: the TGI is 57.8 µM in [4]; over 100 µM in [1]; over 100 µM in assay [5]; over 100 µM in assay [2]; over 100 µM in assay [3]; over 100 µM in assay [6].

On to `Cc1c(N)nc(C2CC(=O)N2CC(N)C(N)=O)nc1C(=O)NC(C(=O)NC(C)C(O)C(C)C(=O)NC(C(=O)NCCc1nc(-c2nc(C(=O)NCCNCC(C)O)cs2)cs1)C(C)O)C(OC1OC(CO)C(O)C(O)C1OC1OC(CO)C(O)C(OC(N)=O)C1O)c1cnc[nH]1` (configuration not stated), for which the TGI in assay [4] is 4.47 µM; in assay [1], 12 µM; in assay [5], over 100 µM; in assay [2] it was over 100 µM; in [7], over 50 µM; in [8] it was over 50 µM. For the same compound, the TGI in assay [9] was over 50 µM; in [6] it was over 22.4 µM.

As for `O=C(Nc1ccccc1)Oc1ccccc1C1CCCCC1`, the TGI in assay [4] was 32.8 µM; in assay [1] it was 42.6 µM; in [5], 68.5 µM; in assay [2], over 100 µM; in [6], 35 µM.

In the case of `O=C1COc2cc3c(cc2N1)SCC(=O)N3`, the TGI in assay [4], in [1], in [5], in assay [2], in [3] and in [6] was over 100 µM throughout.

Regarding `CCOC(=O)/C(=C/c1ccc[nH]1)P(=O)(OCC)OCC`, the TGI in [4], in [1], in assay [5], in [2], in assay [3] and in assay [6] was over 100 µM throughout.

For `Cc1cc2c(=O)cc(-c3ccncc3)oc2c(C(=O)O)c1C`, the TGI in assay [1], in assay [5], in assay [2], in assay [3] and in assay [6] was over 100 µM each time.

For `CCCNc1ncnc2c1cnn2C`, the TGI in assay [4], in [1], in assay [5] and in assay [6] was over 100 µM each time.

For the compound `CC1=CC(=O)N2[C@H](OC[C@@H]2C(C)C)O1`, the TGI in [4], in assay [5], in assay [2], in assay [3] and in assay [6] was over 100 µM throughout.

For `CCCCCCCCCCCCCCCC(=O)NCC(OCC)OCC`, the TGI in assay [4], in assay [1], in [5], in assay [2], in assay [3] and in assay [6] was over 100 µM each time.

For `Cn1nc(-c2ccccc2)c(C(=O)/C=C/c2ccccc2)c(N2CCCC2)c1=O`, the TGI in assay [4] was 34.2 µM; in assay [1] it was 93.1 µM; in assay [5], 47.1 µM; in assay [2], 34.4 µM; in assay [3] it was over 100 µM; in assay [6], 39.9 µM.

As for `CC1CC2C(=O)N(c3ccccc3)C(=O)C2c2[nH]c3ccccc3c21` (configuration not stated), the TGI in [4], in [1], in [2] and in [3] was over 100 µM throughout.

As for `CCOC(=O)c1c(/C=N\Nc2ccccc2)nc2ccccc2c1-c1ccccc1`, the TGI was 98.1 µM in assay [4]; over 100 µM in [1]; over 100 µM in [5]; over 100 µM in assay [2]; over 100 µM in [3].

For the compound `Nc1nc(N)c(-c2ccccc2)c(C(=O)Nc2nccs2)n1`, the TGI in assay [4], in assay [5], in assay [2] and in assay [3] was over 100 µM each time.

Regarding `COC(=O)/C(=C/c1ccc(OC)cc1)c1cc(OC)c(OC)c(OC)c1`, the TGI in [4] was over 23.3 µM; in assay [1] it was over 100 µM; in assay [5], over 100 µM; in [2], over 100 µM; in assay [7], over 100 µM; in assay [8] it was 0.43 µM. Also, the TGI in assay [9] was over 100 µM; in assay [6] it was 83.7 µM.

On to `O=C(O)C12C3C4C1C1C2C3C41I` (configuration not stated), for which the TGI in assay [4], in assay [1], in [2], in [3] and in [6] was over 100 µM in each case.

Consider `NC1CC(n2ccc(=O)[nH]c2=O)OC1C(O)CO` (configuration not stated), for which the TGI in assay [4], in assay [1], in [5], in assay [2], in [3] and in assay [6] was over 100 µM in each case.

In the case of `CC(C)=NO.CC(C)=NO.CC(C)=NO.CC(C)=NO.[Ti]`, the GI50 in assay [4], in assay [1], in [2], in assay [3] and in assay [6] was over 100 µM in each case. The TGI in [4], in assay [1], in assay [2], in assay [3] and in [6] was over 100 µM each time.

In the case of `CCOC(=O)Oc1ccc2[nH]c3c(C)cc(N)c(C)c3c2c1`, the TGI in assay [4], in assay [1], in assay [5] and in [6] was over 100 µM throughout.

Consider `O=C1NC2(CCCCC2)C2=C1CCCCC2`, for which the TGI in assay [4], in [1], in assay [5], in [2] and in assay [6] was over 100 µM in each case.
